How the values were obtained:
[1] = Cytotoxicity by MTT assay; type: cell-based, Human; details: human
Experimental: Drug susceptibility assay. The susceptibility of HIV-1LAI, HIV-2EHO, HIV-2ROD, to various drugs and the cytotoxicity of those drugs was determined by using the MTT assay. Briefly, MT-2 cells (2×10^4/mL) were exposed to 100 TCID50s (50% tissue culture infectious doses) of HIV-1LAI, HIV-2EHO, or HIV-2ROD in the presence or absence of various concentrations of drugs in 96-well microculture plates and were incubated at 37° C. for 7 days. After 100 μL of the medium was removed from each well, 3-(4,5-dimethylthiazol-2-yl)-2,5-diphenyltetrazolium bromide (MTT) solution (10 μL, 7.5 mg/mL in phosphate-buffered saline) was added to each well in the plate, followed by incubation at 37° C. for 4 hours. […] All assays were performed in duplicate or triplicate. To determine the sensitivity of HIV-1Ba-L, HIV-1ERS104 pre, and clinical multi-drug-resistant HIV-1 isolates and different subtypes of HIV-1 isolates to drugs, phytohemagglutinin-activated peripheral blood mononuclear cells (PHA-PBMs; 10^6/mL) were exposed to 50 TCID50 (50% tissue infectious dose) of each HIV-1 isolate and cultured in the presence or absence of various concentrations of drugs in 10-fold serial dilutions in 96-well microtiter culture plates. To determine the drug susceptibility of certain laboratory HIV-1 strains (HIV-1NL4-3), MT-4 cells were used as target cells. MT-4 cells (10^5/mL) were exposed to 100 TCID50 of wild type HIV-1NL4-3 and PI-resistant HIV-1NL4-3 in the presence or absence of various concentrations of drugs and were incubated at 37° C. On day 7 of culture, the supernatant was harvested and the amount of p24 Gag protein was determined by using a fully automated chemiluminescent enzyme immunoassay system (Lumipulse F; Fujirebio Inc., Tokyo, Japan) (22). […] All assays were performed in duplicate or triplicate.

[2] = system: HIV-1 isolates of all subtypes (subtypes A, B, C, and E); test: p24 assay, PHA-PBMs, panel of HIV-1 isolates of subtypes A, B, C, and E; type: cell-based; details: Human immunodeficiency virus 1, read-out: IC50 against HIV-1 isolates of subtypes A, B, C, and E
Experimental: (§1) Drug susceptibility assay. The susceptibility of HIV-1LAI, HIV-2EHO, HIV-2ROD, to various drugs and the cytotoxicity of those drugs was determined by using the MTT assay. Briefly, MT-2 cells (2×10^4/mL) were exposed to 100 TCID50s (50% tissue culture infectious doses) of HIV-1LAI, HIV-2EHO, or HIV-2ROD in the presence or absence of various concentrations of drugs in 96-well microculture plates and were incubated at 37° C. for 7 days. After 100 μL of the medium was removed from each well, 3-(4,5-dimethylthiazol-2-yl)-2,5-diphenyltetrazolium bromide (MTT) solution (10 μL, 7.5 mg/mL in phosphate-buffered saline) was added to each well in the plate, followed by incubation at 37° C. for 4 hours. […] All assays were performed in duplicate or triplicate. […] On day 7 of culture, the supernatant was harvested and the amount of p24 Gag protein was determined by using a fully automated chemiluminescent enzyme immunoassay system (Lumipulse F; Fujirebio Inc., Tokyo, Japan) (22). […]
The IC50 values were determined by using PHA-PBMs as target cells and the inhibition of p24 Gag protein production by each drug was used as an endpoint. […]

HIV-1 protease = target: T1, HIV-1 protease (Human immunodeficiency virus type 1 group M subtype B, UniProt P04585, C555A/C583A/L521I/L551I/Q495K/V491I); test: biochemical; type: biochemical
T1 construct: Wild-type PR at final concentrations of 160-190 nM were added
From the text: Enzyme kinetics. The chromogenic substrate Lys-Ala-Arg-Val-Nle-p-nitroPhe-Glu-Ala-Nle-amide (Sigma, St. Louis, Mo.) was used to determine the kinetic parameters (Kovalevsky et al. J Mol Biol 363(1):161-173 (2006), Ghosh et al. J Med Chem 49(17):5252-5261 (2006)). […] The kcat and Km values were obtained employing standard data fitting techniques for a reaction obeying Michaelis-Menten kinetics. The data curves were fitted using SigmaPlot 8.0.2 (SPSS Inc., Chicago, Ill.). The active enzyme concentrations were calculated from the intercept of the linear fit to the IC50 versus [S] plots with the IC50 axis. The Ki values were obtained from the IC50 values estimated from an inhibitor dose-response curve with the spectroscopic assay using the equation Ki=(IC50-[E]/2)/(1+[S]/Km), where [E] and [S] are the PR and substrate concentrations, respectively (Maibaum & Rich J Med Chem 31(34):625-629 (1988)). The Ki values were measured at four to five substrate concentrations. The measurement was repeated at least three times to produce the average values.

[3] = system: HIV-2 strains (HIV-2EHO and HIV-2ROD); test: MTT assay, MT-2 cells, HIV-2 strains compared with HIV-1LAI; type: cell-based
Experimental: as §1

[4] = system: HIV-1, HIV-2, and primary HIV-1 strains of different subtypes; test: Antiviral activity over Tables 1, 2 and 5 (summary); type: cell-based
Experimental: as §1

`CC(C)CN(CC(O)C(Cc1ccccc1)NC(=O)OC1COC2OCCC12)S(=O)(=O)c1ccc2c(c1)OCO2` (centres unmarked) [GRL-98065] showed a CC50 at 7 days [1] of 35700 nM, an IC50 [2] of 0.2 to 0.5 nM and a Ki (HIV-1 protease) of 0.014 nM. For the same compound, the “factor by which potency against HIV-2 strains is less than against HIV-1LAI” value [3] was 6-9 and the IC50 [4] was 0.2 to 4.5 nM.

— patent publication US9808527B2, “Methods and compositions for treating HIV infections” (priority 2006, dated 2017)
